The target of one assay is Pim-1 (Homo sapiens (Human), UniProt P11309). The assay can be described thus: Pim-Mn enzyme assay (HTRF, 384-well), Pim-1. The format is biochemical. The note with it: Pim-1 enzyme 5 pM, ATP 1.5 μM, BAD (S112) 0.5 μM, HTRF, 22-point curve; read-out: Pim-1-Mn IC50 IP.
A further assay addresses Pim-2 (Homo sapiens (Human), UniProt Q9P1W9). The experiment in a line: Pim-Mn enzyme assay (HTRF, 384-well), Pim-2. The format is biochemical. The note with it: Pim-2 enzyme 0.5 pM, ATP 1.5 μM, BAD (S112) 0.5 μM, HTRF, 22-point curve; read-out: Pim-2-Mn IC50 IP.
Assay [1] deals with KMS-12-BM myeloma cell line. The experiment in a line: Pim KMS-12 cell assay (phospho-BAD S112 / total BAD, MSD).
The mark [2] stands for this setting: read-out: KMS-12-BM IC50 IP, KMS-12-BM cells, phospho-BAD (S112) vs total BAD, 1 hour 50 min with compound.
Setting [3] is: Homo sapiens, KMS-12-BM, read-out: KMS-12-BM IC50 IP, KMS-12-BM cells, phospho-BAD (S112) vs total BAD, 1 hour 50 min with compound.

We go through 22 compounds from US9394297B2, “Amides as pim inhibitors” (AMGEN INC., priority 2012, dated 2016).

Where two headings read alike, the source gives them in different places.

Sequence of Pim-1 (P11309 whole entry): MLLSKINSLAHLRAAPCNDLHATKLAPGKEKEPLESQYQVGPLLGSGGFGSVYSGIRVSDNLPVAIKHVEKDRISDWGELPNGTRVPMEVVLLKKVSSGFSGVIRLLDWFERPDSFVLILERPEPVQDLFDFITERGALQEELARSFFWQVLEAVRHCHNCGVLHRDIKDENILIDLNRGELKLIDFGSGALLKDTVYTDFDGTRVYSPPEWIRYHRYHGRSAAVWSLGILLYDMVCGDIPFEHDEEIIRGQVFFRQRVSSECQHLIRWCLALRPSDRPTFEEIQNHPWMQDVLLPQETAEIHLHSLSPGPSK
Sequence of Pim-2 (Q9P1W9 whole entry): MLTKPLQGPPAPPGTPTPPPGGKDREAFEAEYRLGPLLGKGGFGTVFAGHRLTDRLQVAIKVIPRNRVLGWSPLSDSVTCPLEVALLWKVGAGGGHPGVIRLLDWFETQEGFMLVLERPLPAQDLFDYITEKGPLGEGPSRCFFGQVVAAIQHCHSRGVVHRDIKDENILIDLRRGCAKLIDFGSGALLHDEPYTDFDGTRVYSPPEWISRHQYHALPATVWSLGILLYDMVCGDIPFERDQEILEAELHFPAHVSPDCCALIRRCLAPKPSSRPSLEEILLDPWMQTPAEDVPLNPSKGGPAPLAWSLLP

On to “2′-(3-(cyclopropylamino)-6-fluoro-2-methylquinoxalin-5-yl)-1′H-spiro[cyclopropane-1,6′-pyrrolo[3,4-b]pyrrol]-4′(5′H)-one [Example 283]”, for which the IC50 at Pim-1 amounted to 3.3 nM; on Pim-2, 0.8 nM; in assay [1] (setting [2]), 199 nM.

Regarding `Cc1nc2cccc(-c3cc4c([nH]3)CCNC4=O)c2nc1NC1CCOC1` (racemic) [Example 71, 2-(2-methyl-3-((±)-tetrahydro-3-furanylamino)-5-quinoxalinyl)-1,5,6,7-tetrahydro-4H-pyrrolo[3,2-c]pyridin-4-one], the IC50 came out at 6.4 nM at Pim-1, 6.1 nM on Pim-2 and 474 nM in assay [1] (setting [3]).

`Cc1nc2cccc(-c3cc4c([nH]3)CCNC4=O)c2nc1NC1CCCC(O)C1` (racemic) [Example 204, 2-(3-((3-hydroxycyclohexyl)amino)-2-methylquinoxalin-5-yl)-6,7-dihydro-1H-pyrrolo[3,2-c]pyridin-4(5H)-one]: the IC50 was 2.6 nM at Pim-1, 3.5 nM at Pim-2 and 445 nM in assay [1] (setting [3]). The matching figures for `Cc1nc2cccc(-c3cc4c([nH]3)CCNC4=O)c2nc1NC1CCCCC1O` (racemic) [Example 205, 2-(3-((2-hydroxycyclohexyl)amino)-2-methylquinoxalin-5-yl)-6,7-dihydro-1H-pyrrolo[3,2-c]pyridin-4(5H)-one]: 4.9 nM, 4.5 nM and 1140 nM. Take `Cc1nc2cccc(-c3cc4c([nH]3)CCNC4=O)c2nc1N[C@H]1CCC[C@@H](N)C1` (single isomer, unassigned) [Example 140, 2-(3-((cis-3-aminocyclohexyl)amino)-2-methylquinoxalin-5-yl)-6,7-dihydro-1H-pyrrolo[3,2-c]pyridin-4(5H)-one]: the IC50 in assay [1] (setting [3]) came to 1240 nM. As to `Cc1nc2cccc(-c3cc4c([nH]3)CCNC4=O)c2nc1NC1CCCOC1` (single isomer, unassigned) [Example 208, 2-(2-methyl-3-((tetrahydro-2H-pyran-3-yl)amino)quinoxalin-5-yl)-6,7-dihydro-1H-pyrrolo[3,2-c]pyridin-4(5H)-one], in assay [1] (setting [3]), the IC50 stood at 366 nM. In the case of `Cc1nc2cccc(-c3cc4c([nH]3)CCNC4=O)c2nc1NC1CCCOC1` (single isomer, unassigned) [Example 209, 2-(2-methyl-3-((tetrahydro-2H-pyran-3-yl)amino)quinoxalin-5-yl)-6,7-dihydro-1H-pyrrolo[3,2-c]pyridin-4(5H)-one], the IC50 in assay [1] (setting [2]) stood at 268 nM. `CC[C@@H]1CNC(=O)c2cc(-c3cccc4ccc(Nc5ccccc5)nc34)[nH]c21` [Example 25, (R)-7-ethyl-2-(2-(phenylamino)quinolin-8-yl)-6,7-dihydro-1H-pyrrolo[3,2-c]pyridin-4(5H)-one]: the IC50 in assay [1] (setting [3]) turned out to be 4560 nM.

With `Nc1nc2cccc(-c3cc4c([nH]3)CCNC4=O)c2nc1Oc1ccccc1` [Example 36, 2-(2-amino-3-phenoxyquinoxalin-5-yl)-6,7-dihydro-1H-pyrrolo[3,2-c]pyridin-4(5H)-one], the IC50 in assay [1] (setting [3]) came to 209 nM. On the same count and under the same terms, in the case of `Cc1nc2cccc(-c3cc4c([nH]3)CCNC4=O)c2nc1NC(C)(C)C(N)=O` [Example 62, 2-methyl-N-2-(3-methyl-8-(4-oxo-4,5,6,7-tetrahydro-1H-pyrrolo[3,2-c]pyridin-2-yl)-2-quinoxalinyl)alaninamide] it was 2610 nM. Regarding `COCC(C)(C)Nc1nc2c(-c3cc4c([nH]3)CCNC4=O)cccc2nc1C` [Example 63, 2-(3-((2-methoxy-1,1-dimethylethyl)amino)-2-methyl-5-quinoxalinyl)-1,5,6,7-tetrahydro-4H-pyrrolo[3,2-c]pyridin-4-one], the IC50 on Pim-1 stood at 4.3 nM; at Pim-2, 5.4 nM; in assay [1] (setting [3]) it was 513 nM.

As to `COCC(C)(C)Nc1nc2c(-c3cc4c([nH]3)CCNC4=O)cccc2nc1C` [Example 66, 2-(3-((2-methoxy-1,1-dimethylethyl)amino)-2-methyl-5-quinoxalinyl)-1,5,6,7-tetrahydro-4H-pyrrolo[3,2-c]pyridin-4-one], the IC50 at Pim-1 came out at 2.7 nM; on Pim-2, 0.7 nM; in assay [1] (setting [2]), 215 nM. With `Cc1nc2cccc(-c3cc4c([nH]3)CCNC4=O)c2nc1NC1(C)CCCC1` [Example 67, 2-(2-methyl-3-((1-methylcyclopentyl)amino)-5-quinoxalinyl)-1,5,6,7-tetrahydro-4H-pyrrolo[3,2-c]pyridin-4-one], the figures for the IC50 (at Pim-1; at Pim-2; in assay [1] (setting [3])) were 0.4 nM, 0.6 nM and 167 nM, respectively. The matching figures for `Cc1nc2cccc(-c3cc4c([nH]3)CCNC4=O)c2nc1N(C)C(C)C` [Example 68, 2-(2-methyl-3-(methyl(1-methylethyl)amino)-5-quinoxalinyl)-1,5,6,7-tetrahydro-4H-pyrrolo[3,2-c]pyridin-4-one]: 4.5 nM, 6.1 nM and 445 nM. For the compound `O=C1NCCc2[nH]c(-c3cccc4ccc(N[C@H]5CC[C@H](O)CC5)nc34)cc21` [Example 82, 2-(2-(((1R,4R)-4-hydroxycyclohexyl)amino)quinolin-8-yl)-6,7-dihydro-1H-pyrrolo[3,2-c]pyridin-4(5H)-one], the IC50 in assay [1] (setting [3]) was 4620 nM.

With `Cc1cc2cccc(-c3cc4c([nH]3)CCNC4=O)c2nc1Oc1ccccc1` [Example 104, 2-(3-methyl-2-phenoxyquinolin-8-yl)-6,7-dihydro-1H-pyrrolo[3,2-c]pyridin-4(5H)-one], the IC50 in assay [1] (setting [3]) came out at 5230 nM.

Regarding `O=C1NCCc2[nH]c(-c3cccc4ccc(Nc5c(F)cccc5F)nc34)cc21` [Example 175, 2-(2-((2,6-difluorophenyl)amino)quinolin-8-yl)-6,7-dihydro-1H-pyrrolo[3,2-c]pyridin-4(5H)-one], the IC50 in assay [1] (setting [3]) stood at 1510 nM.

With `CC1(C)CCCN1c1cnc2cccc(-c3cc4c([nH]3)CCNC4=O)c2n1` [Example 216], the IC50 in assay [1] (setting [3]) worked out at 225 nM. For `CC[C@H]1CNC(=O)c2cc(-c3cccc4ccc(Nc5ccccc5)nc34)[nH]c21` [Example 239, (S)-7-ethyl-2-(2-(phenylamino)quinolin-8-yl)-6,7-dihydro-1H-pyrrolo[3,2-c]pyridin-4(5H)-one], the IC50 in assay [1] (setting [3]) was 1850 nM. As to `Cc1nc2cccc(-c3cc4c([nH]3)CCNC4=O)c2nc1CC(C)(C)C` [Example 272, 2-(3-(2,2-dimethylpropyl)-2-methyl-5-quinoxalinyl)-1,5,6,7-tetrahydro-4H-pyrrolo[3,2-c]pyridin-4-one], the IC50 stood at 7.8 nM on Pim-2 and 1530 nM in assay [1] (setting [3]). As to `Cc1nc2cccc(-c3cc4c([nH]3)CCNC4=O)c2nc1NC(C)(C)CCO` [Example 279, 2-(3-((3-hydroxy-1,1-dimethylpropyl)amino)-2-methyl-5-quinoxalinyl)-1,5,6,7-tetrahydro-4H-pyrrolo[3,2-c]pyridin-4-one], the IC50 in assay [1] (setting [3]) worked out at 252 nM. Regarding `CC(C)(C)Nc1nc2c(-c3cc4c([nH]3)CCNC4=O)cccc2nc1C=O` [Example 282, 3-(tert-butylamino)-5-(4-oxo-4,5,6,7-tetrahydro-1H-pyrrolo[3,2-c]pyridin-2-yl)-2-quinoxalinecarbaldehyde], the IC50 was determined as 5.3 nM at Pim-1 and 3440 nM in assay [1] (setting [3]).
